Measured values: ChEMBL document CHEMBL3885861, “Open TG-GATES”

Species: Rattus norvegicus
Test: Open TG-GATES - Regimen: Single
Format: toxicity, organism-based, Sprague-Dawley
Parameters: regimen Single, gender Male, age 6 weeks
Conditions: in vivo, po, 100 mg/kg, route gavage, dose level Middle; for APTT / Bas / Eos / Fbg / Hb / Ht / Lym / MCHC / MCV / Mono / Neu / PT / Plat / RBC / Ret / WBC: tissue Blood; for KIDNEY_L / KIDNEY_R / KIDNEY_TOTAL: tissue Kidney; for LIVER: tissue Liver; for ALP / ALT / AST / BUN / CRE / Ca / Cl / DBIL / GLC / IP / K / LDH / Na / PL / RALB / TBIL / TC / TG / TP / gamma-GTP: tissue Plasma

Q: Which TERMINAL_BW (3 h) does the source give for CS(=O)(=O)Nc1ccc([N+](=O)[O-])cc1Oc1ccccc1 [NIMESULIDE] here?
A: 203.6 g

Q: And the APTT (3 h)?
A: 16.7 s

Q: And the Bas (3 h)?
A: 0%

Q: And the Eos (3 h)?
A: 1.2%

Q: What about the Fbg (3 h) of the same molecule?
A: 201.6 mg/dL

Q: And the Hb (3 h)?
A: 13.1 g/dL

Q: What about the Ht (3 h) of the same molecule?
A: 38.3%

Q: What about the Lym (3 h) of the same molecule?
A: 71.4%

Q: What about the MCHC (3 h) of the same molecule?
A: 34.3%

Q: What about the MCV (3 h) of the same molecule?
A: 65.8 fL

Q: And the Mono (3 h)?
A: 8.2%

Q: What about the Neu (3 h) of the same molecule?
A: 19.2%

Q: What about the PT (3 h) of the same molecule?
A: 12.2 s

Q: And the Plat (3 h)?
A: 110 x10_4/uL

Q: And the RBC (3 h)?
A: 582.2 x10_4/ul

Q: And the Ret (3 h)?
A: 11.3%

Q: And the WBC (3 h)?
A: 87.9 x10_2/uL

Q: And the KIDNEY_L (3 h)?
A: 0.9 g

Q: What about the KIDNEY_R (3 h) of the same molecule?
A: 0.9 g

Q: What about the KIDNEY_TOTAL (3 h) of the same molecule?
A: 1.8 g

Q: What about the LIVER (3 h) of the same molecule?
A: 9.5 g

Q: What about the ALP (3 h) of the same molecule?
A: 901.6 IU/L

Q: What about the ALT (3 h) of the same molecule?
A: 36.2 IU/L

Q: What about the AST (3 h) of the same molecule?
A: 66.6 IU/L

Q: And the BUN (3 h)?
A: 14 mg/dL

Q: What about the CRE (3 h) of the same molecule?
A: 0.6 mg/dL

Q: And the Ca (3 h)?
A: 11 mg/dL

Q: What about the Cl (3 h) of the same molecule?
A: 105.8 meq/L

Q: And the DBIL (3 h)?
A: 0.06 mg/dL

Q: What about the GLC (3 h) of the same molecule?
A: 233.2 mg/dL

Q: And the IP (3 h)?
A: 9.6 mg/dL

Q: What about the K (3 h) of the same molecule?
A: 5 meq/L

Q: And the LDH (3 h)?
A: 93.8 IU/L

Q: What about the Na (3 h) of the same molecule?
A: 140.2 meq/L

Q: What about the PL (3 h) of the same molecule?
A: 145.4 mg/dL

Q: And the RALB (3 h)?
A: 3.9 g/dL

Q: And the TBIL (3 h)?
A: 0.4 mg/dL

Q: And the TC (3 h)?
A: 85.2 mg/dL

Q: And the TG (3 h)?
A: 54.8 mg/dL

Q: What about the TP (3 h) of the same molecule?
A: 5.2 g/dL

Q: And the gamma-GTP (3 h)?
A: 1 IU/L

Q: And the TERMINAL_BW (6 h)?
A: 202.6 g

Q: And the APTT (6 h)?
A: 18.2 s

Q: And the Bas (6 h)?
A: 0%

Q: What about the Eos (6 h) of the same molecule?
A: 1%

Q: And the Fbg (6 h)?
A: 211.2 mg/dL

Q: What about the Hb (6 h) of the same molecule?
A: 13.2 g/dL

Q: What about the Ht (6 h) of the same molecule?
A: 39.2%

Q: What about the Lym (6 h) of the same molecule?
A: 73.2%

Q: What about the MCHC (6 h) of the same molecule?
A: 33.6%

Q: And the MCV (6 h)?
A: 65.7 fL

Q: What about the Mono (6 h) of the same molecule?
A: 4.4%

Q: And the Neu (6 h)?
A: 21.8%

Q: What about the PT (6 h) of the same molecule?
A: 12.4 s

Q: And the Plat (6 h)?
A: 119.2 x10_4/uL

Q: What about the RBC (6 h) of the same molecule?
A: 596.6 x10_4/ul

Q: And the Ret (6 h)?
A: 9%

Q: What about the WBC (6 h) of the same molecule?
A: 69.4 x10_2/uL

Q: And the KIDNEY_L (6 h)?
A: 0.9 g

Q: What about the KIDNEY_R (6 h) of the same molecule?
A: 1 g

Q: And the KIDNEY_TOTAL (6 h)?
A: 1.9 g

Q: And the LIVER (6 h)?
A: 8.6 g

Q: And the ALP (6 h)?
A: 733.2 IU/L

Q: And the ALT (6 h)?
A: 36.4 IU/L

Q: And the AST (6 h)?
A: 67.2 IU/L

Q: And the BUN (6 h)?
A: 14.8 mg/dL

Q: What about the CRE (6 h) of the same molecule?
A: 0.7 mg/dL

Q: And the Ca (6 h)?
A: 10.5 mg/dL

Q: And the Cl (6 h)?
A: 103.4 meq/L

Q: What about the DBIL (6 h) of the same molecule?
A: 0.072 mg/dL

Q: What about the GLC (6 h) of the same molecule?
A: 258 mg/dL

Q: And the IP (6 h)?
A: 10.4 mg/dL

Q: And the K (6 h)?
A: 4.3 meq/L

Q: And the LDH (6 h)?
A: 79.6 IU/L

Q: What about the Na (6 h) of the same molecule?
A: 139.8 meq/L

Q: And the PL (6 h)?
A: 132.8 mg/dL

Q: What about the RALB (6 h) of the same molecule?
A: 3.7 g/dL

Q: What about the TBIL (6 h) of the same molecule?
A: 0.5 mg/dL

Q: What about the TC (6 h) of the same molecule?
A: 79.8 mg/dL

Q: And the TG (6 h)?
A: 28 mg/dL

Q: And the TP (6 h)?
A: 5.3 g/dL

Q: And the gamma-GTP (6 h)?
A: 1.6 IU/L

Q: What about the TERMINAL_BW (9 h) of the same molecule?
A: 194.5 g

Q: And the APTT (9 h)?
A: 19.5 s

Q: What about the Bas (9 h) of the same molecule?
A: 0%

Q: And the Eos (9 h)?
A: 0.6%

Q: And the Fbg (9 h)?
A: 214.8 mg/dL

Q: And the Hb (9 h)?
A: 13.6 g/dL

Q: What about the Ht (9 h) of the same molecule?
A: 40.6%

Q: And the Lym (9 h)?
A: 79.2%

Q: What about the MCHC (9 h) of the same molecule?
A: 33.5%

Q: And the MCV (9 h)?
A: 65.2 fL

Q: And the Mono (9 h)?
A: 6%

Q: And the Neu (9 h)?
A: 14.4%

Q: And the PT (9 h)?
A: 12.5 s

Q: What about the Plat (9 h) of the same molecule?
A: 117.1 x10_4/uL

Q: What about the RBC (9 h) of the same molecule?
A: 621.8 x10_4/ul

Q: And the Ret (9 h)?
A: 11.2%

Q: And the WBC (9 h)?
A: 80.5 x10_2/uL

Q: What about the KIDNEY_L (9 h) of the same molecule?
A: 0.9 g

Q: What about the KIDNEY_R (9 h) of the same molecule?
A: 0.9 g

Q: And the KIDNEY_TOTAL (9 h)?
A: 1.8 g

Q: And the LIVER (9 h)?
A: 7.9 g

Q: And the ALP (9 h)?
A: 917.4 IU/L

Q: And the ALT (9 h)?
A: 32.8 IU/L

Q: What about the AST (9 h) of the same molecule?
A: 62.4 IU/L

Q: And the BUN (9 h)?
A: 12.6 mg/dL

Q: What about the CRE (9 h) of the same molecule?
A: 0.6 mg/dL

Q: And the Ca (9 h)?
A: 10.6 mg/dL

Q: What about the Cl (9 h) of the same molecule?
A: 107.2 meq/L

Q: And the DBIL (9 h)?
A: 0.018 mg/dL

Q: And the GLC (9 h)?
A: 234 mg/dL

Q: What about the IP (9 h) of the same molecule?
A: 9.5 mg/dL

Q: What about the K (9 h) of the same molecule?
A: 5 meq/L

Q: What about the LDH (9 h) of the same molecule?
A: 72 IU/L

Q: And the Na (9 h)?
A: 138.2 meq/L

Q: What about the PL (9 h) of the same molecule?
A: 137.8 mg/dL

Q: What about the RALB (9 h) of the same molecule?
A: 4 g/dL

Q: What about the TBIL (9 h) of the same molecule?
A: 0.4 mg/dL

Q: And the TC (9 h)?
A: 77.8 mg/dL

Q: And the TG (9 h)?
A: 28.6 mg/dL

Q: And the TP (9 h)?
A: 5.4 g/dL

Q: What about the gamma-GTP (9 h) of the same molecule?
A: 1 IU/L

Q: What about the TERMINAL_BW (24 h) of the same molecule?
A: 205.9 g

Q: And the APTT (24 h)?
A: 17.2 s

Q: And the Bas (24 h)?
A: 0%

Q: And the Eos (24 h)?
A: 1%

Q: What about the Fbg (24 h) of the same molecule?
A: 216.6 mg/dL

Q: What about the Hb (24 h) of the same molecule?
A: 13.8 g/dL

Q: What about the Ht (24 h) of the same molecule?
A: 40.7%

Q: And the Lym (24 h)?
A: 69%

Q: What about the MCHC (24 h) of the same molecule?
A: 33.7%

Q: What about the MCV (24 h) of the same molecule?
A: 64.1 fL

Q: What about the Mono (24 h) of the same molecule?
A: 6.8%

Q: And the Neu (24 h)?
A: 23.4%

Q: What about the PT (24 h) of the same molecule?
A: 12 s

Q: What about the Plat (24 h) of the same molecule?
A: 116.2 x10_4/uL

Q: What about the RBC (24 h) of the same molecule?
A: 636.2 x10_4/ul

Q: What about the Ret (24 h) of the same molecule?
A: 10%

Q: What about the WBC (24 h) of the same molecule?
A: 104.6 x10_2/uL

Q: What about the KIDNEY_L (24 h) of the same molecule?
A: 0.9 g

Q: And the KIDNEY_R (24 h)?
A: 0.9 g

Q: What about the KIDNEY_TOTAL (24 h) of the same molecule?
A: 1.9 g

Q: And the LIVER (24 h)?
A: 10.2 g

Q: What about the ALP (24 h) of the same molecule?
A: 976.6 IU/L

Q: And the ALT (24 h)?
A: 37.2 IU/L

Q: What about the AST (24 h) of the same molecule?
A: 66.8 IU/L

Q: And the BUN (24 h)?
A: 20.8 mg/dL

Q: And the CRE (24 h)?
A: 0.6 mg/dL

Q: What about the Ca (24 h) of the same molecule?
A: 10.7 mg/dL

Q: What about the Cl (24 h) of the same molecule?
A: 106.6 meq/L

Q: What about the DBIL (24 h) of the same molecule?
A: 0.024 mg/dL

Q: What about the GLC (24 h) of the same molecule?
A: 185.6 mg/dL

Q: What about the IP (24 h) of the same molecule?
A: 6.6 mg/dL

Q: What about the K (24 h) of the same molecule?
A: 4.9 meq/L

Q: What about the LDH (24 h) of the same molecule?
A: 105.6 IU/L

Q: What about the Na (24 h) of the same molecule?
A: 140.4 meq/L

Q: And the PL (24 h)?
A: 148 mg/dL

Q: What about the RALB (24 h) of the same molecule?
A: 3.9 g/dL

Q: And the TBIL (24 h)?
A: 0.3 mg/dL

Q: What about the TC (24 h) of the same molecule?
A: 81.6 mg/dL

Q: And the TG (24 h)?
A: 110.6 mg/dL

Q: What about the TP (24 h) of the same molecule?
A: 5.4 g/dL

Q: What about the gamma-GTP (24 h) of the same molecule?
A: 1.8 IU/L
